The values that follow come from US9487787B2, “Method for regulating protein function in cells using synthetic small molecules” (The Board of Trustees of the Leland Stanford Junior …, priority 2007, dated 2016).

The subject of assay [1] is proteasome. Nature of the assay: Immunoblot of F15S-YFP and L106P-YFP after Shield1 withdrawal with proteasome inhibitors. As to conditions: 10 μM, 4 hrs, F15S-YFP and L106P-YFP in NIH3T3. It is filed as cell-based. (In western blotting, separated proteins are transferred to a membrane and probed.)
Method: Immunoblot analysis was performed using an anti-YFP antibody.
The mechanism of degradation was examined for the F15S and L106P variants. Since the ubiquitin-proteasome system is a major mediator of intracellular protein degradation (Pickart, 2004), the cells expressing either the FKBP-derived, ligand-responsive destabilizing domain variants F15S or L106P were incubated with MG132 (FIG. 2F) or lactacystin (FIG. 9), which inhibit ubiquitin-proteasome-mediated protein degradation.
The subject of assay [2] is L106P-RhoA, L106P-Cdc42, Arl7-L106P in NIH3T3 cells. Nature of the assay: Ligand-dependent control of cell morphology by GTPase fusions, confocal microscopy. It is filed as cell-based. As to conditions: Shield1-treated, mock-treated or Shield1 removed. As to the method:
NIH3T3 cells stably expressing constitutively active GTPases fused to destabilizing domains were treated with 1 μM Shield1 for 24 hr. At this time, cells were washed once with PBS, plated at 8×10^3 cells in 4-well LabTek Chambered coverglass (NUNC) coated with 1 mg/ml poly-D-lysine (Sigma), along with mock-treated transduced cells and transduced cells treated with 1 μM Shield1. Cells were cultured for 24 hr in 10% DBS, then cultured in serum-free media for 12 hr. Cells were then washed with PBS, fixed in 4% paraformaldehyde for 15 min, permeabilized in 0.2% Triton X-100 for 5 min, stained with 1 μg/ml Alexa Fluor 488-conjugated phalloidin (Invitrogen; A12379) in PBS for 20 min, and washed with PBS. Fixed cells were imaged using a Bio-Rad Radiance 2100 confocal microscope.
Expression of constitutively active small GTPases causes well-characterized changes in cellular morphology (Heo and Meyer, 2003). To determine if FKBP-derived destabilizing domains, in combination with Shield1, could affect cell morphology by modulating GTPases levels, several small GTPases (i.e., RhoA, Cdc42, or Arl7) were fused to the destabilizing domains (FIGS. 4A and 4B). NIH3T3 cells were individually transduced with the L106P-RhoA, L106P-Cdc42, or Arl7-L106P (note arrangement of fusions), and then mock-treated or treated with Shield1, and visualized using confocal microscopy (not shown). […]

The test system of assay [3] is YFP fusion protein. Briefly: Immunoblot of YFP fusion protein in transfected Plasmodium. It counts as cell-based, Plasmodium falciparum.
Assay [4] concerns the target T1, FKBP L106P-YFP fusion protein (Homo sapiens, UniProt P62942, F37V).
T1 construct: expressed in transfected cells
Briefly: Shield1 dose-response stabilization of FKBP-YFP fusion, flow cytometry. It is filed as cell-based. As to the method: (§1) The data for FIGS. 2A-2D are presented as the average mean fluorescence intensity (MFI)±SEM relative to that of the maximum fluorescence intensity observed for the individual mutant. Experiments were performed in triplicate. (FIG. 2A) Fluorescence of FKBP-YFP fusion proteins expressed in NIH3T3 cells as determined by flow cytometry in the absence of Shield1. (FIG. 2B) NIH3T3 cells stably expressing FKBP-YFP fusion proteins were treated with three-fold dilutions of Shield1 (1 μM to 0.1 nM) and the fluorescence was monitored by flow cytometry. (FIG. 2C) NIH3T3 cells stably expressing FKBP-YFP fusion proteins were either mock-treated (circles) or treated with 30 nM Shield1 (squares), 100 nM Shield1 (diamonds), 300 nM Shield1 (crosses), or 1 μM Shield1 (triangles). Fluorescence was monitored over time using flow cytometry. MFI was normalized to 100% of cells treated with 1 μM Shield1 at 24 hrs. (FIG. 2D) NIH3T3 cells stably expressing FKBP-YFP fusion proteins were treated with 1 μM Shield1 for 24 hours at which point the cells were washed with media to remove Shield1, and the decrease in fluorescence was monitored using flow cytometry.
(§2) Twenty-four hours prior to analysis, transduced NIH3T3 cells were plated at 1×10^5 cells per well of a 12-well plate and treated as described. Cells were removed from the plate using PBS+2 mM EDTA, washed once with PBS, and resuspended in 200 μl PBS. Cells were analyzed at the Stanford Shared FACS Facility using FlasherII with 10,000 events represented.
(§3) Each variant FKBP-derived, ligand-responsive destabilizing domain was separately transduced into NIH3T3 cells, and YFP fluorescence levels were measured in the absence of Shield1 (FIG. 2A). […] The most destabilizing variation, L106P, produced YFP fluorescence at a level of only 1-2% relative to the positive control. All FKBP-derived, ligand-responsive destabilizing domain variants produced increased fluorescence signal when incubated in the presence of Shield1 ([…]). […]
On the technique in general: Flow cytometry measures light scatter and fluorescence of single cells or particles in a stream.

The target of assay [5] is T2, FKBP V24A-YFP fusion protein (Homo sapiens, UniProt P62942, F37V/V25A).
T2 construct: expressed in transfected cells; host or cells: NIH3T3 (retroviral transduction)
The description is as above. It is filed as cell-based. The note with it: NIH3T3 cells stably expressing V24A FKBP-YFP; extracellular Shield1 giving 50% of maximum YFP signal; read-out: EC50 of stabilization (rescue) by Shield1. As to the method:
as §1, §2, §3

For assay [6], the target named is T3, FKBP-YFP fusion proteins (Homo sapiens, UniProt P62942, F37V).
T3 construct: expressed in transfected cells
Briefly: Kinetics of FKBP-YFP fluorescence upon addition of Shield1. It counts as cell-based. As to conditions: NIH3T3 cells transduced with L106P-YFP. As for the experimental part: as §1
(§4) FIG. 8 is a graph showing the kinetics of FKBP-YFP fluorescence in cells upon addition of Shield1. NIH3T3 cells stably expressing the indicated FKBP-YFP fusions were treated with 1 μM Shield1, and increases in fluorescence were monitored over time using flow cytometry. Data are presented as the average mean fluorescence intensity (MFI)±SEM relative to that of the maximum fluorescence intensity observed for the individual variant. The experiment was performed in triplicate, and MFI was normalized to 100% at 24 hr.
(§5) In a kinetic study of NIH3T3 cells stably expressing each of the five FKBP-derived, ligand-responsive destabilizing domain variants, YFP fluorescence increased at approximately the same rate upon addition of Shield1, with maximum fluorescence achieved at 24 hours and stably maintained for at least an additional 48 hours without further addition of Shield1 (FIG. 2C). […]

For assay [7], the system named is FKBP-YFP fusion proteins. The assay is described as above. It is filed as cell-based, human. As to conditions: NIH3T3 cells stably expressing FKBP-YFP variants. As to the method: as §1, §4, §5
The subject of assay [8] is luciferase fused to FKBP-derived stability-affecting protein (F36V/L106P). Briefly: Bioluminescence imaging of mice challenged with HCT116 tumor cells expressing luciferase-FKBP fusion. It counts as in vivo, SCID mice. The source says: FIGS. 7A and 7B are graphs showing the results of an experiments in which SCID mice were challenged with tumor cells genetically manipulated to express luciferase fused to a stability-affecting protein.
HCT116 cancer cells were transfected with a nucleic acids encoding the reporter gene luciferase fused to an FKBP-derived stability-affecting protein (F36V/L106P) mutant. Stable transformants were then selected and used to challenge SCID mice.
The results of an experiments in which SCID were challenged with tumor cells harboring nucleic acids encoding luciferase fused to an FKBP-derived, stability-affecting protein (F36V/L106P) are shown in FIGS. 7A and 7B. The mice were either untreated or treated with the indicated amounts of ligand (Shield1) and bioluminescent signals were imaged over time as described (Lin, A. H., et al. (2005) J. Immunol. 175:547-54; Luo, J., et al. (2006) Proc. Nat'l. Acad. Sci. USA 103:18326-31; n=4-10 mice per treatment group).

Assay [9] deals with FKBP-derived stability-affecting domain fused to the N-terminus of YFP. Nature of the assay: Time lapse fluorescence microscopy of parasitophorous vacuoles in infected HFF cells. As to conditions: T. gondii in HFF cells. It counts as cell-based, Toxoplasma gondii. The text has this:
The fluorescence of parasitophorous vacuoles in infected cells was monitored by time lapse microscopy following addition (FIG. 6B) or removal of ligand (FIG. 6C). Background fluorescence is indicated.
Nucleotides expressing the fusion the fusion protein were introduced into T. gondii parasites, which were then used to infect HFF cells. The parasitophorous vacuoles in the infected cells were monitored by time lapse fluorescence microscopy following the addition of ligand (Shield1; FIG. 6B) or following the removal of ligand (FIG. 6C). The indicated control line corresponds to background fluorescence, while each of the other lines in the graphs correspond to individual infected cells.

The target of assay [10] is FKBP F36V variant (Homo sapiens, UniProt P62942, F37V). As to conditions: Clackson et al. 1998; cited from earlier work.
For assay [11], the system named is FKBP variant fusions to proteins of interest in NIH3T3 cells. Nature of the assay: Immunoblot of proteins of interest fused to FKBP destabilizing domains, mock or 1 μM Shield1. It is filed as cell-based. As to the method:
(FIG. 4A) FKBP variants F15S and L106P were fused to the N-termini of several different proteins and transduced into NIH3T3 cells. Cell populations stably expressing the fusions were then either mock-treated or treated with 1 μM Shield1, and cell lysates were subjected to immunoblot analysis using antibodies specific for the protein of interest. Endogenous proteins served as loading controls (when detected) and Hsp90 served as a loading control otherwise. (FIG. 4B) FKBP variants D100G and L106P were fused to the C-termini of several different proteins of interest and treated as above.
An additional example is CD8α, a transmembrane glycoprotein found on the surface of T cells, which was able to be detected on the surface of cells by flow cytometry (FIG. 5), in a Shield1-dependent manner. […] Here, NIH3T3 cells stably expressing the fusion proteins were divided into three pools (groups). The first group (−) was mock-treated, the second group (+) was treated with 1 μM Shield1 for 24 hrs, and the third group (+/−) was treated with 1 μM Shield1 for 24 hrs, and then washed with media and cultured for 24 hr in the absence of Shield1. Live cells were then probed with a FITC-conjugated anti-CD8α antibody and assayed by flow cytometry. Data are presented as the average mean fluorescence intensity±SEM from an experiment performed in triplicate.

In assay [12] the test system is falcipain-2 fused to the F36V/L106P FKBP mutant. Briefly: Conditional falcipain stabilization, swollen vacuole phenotype. It is filed as cell-based, Plasmodium falciparum. The text has this: In a related experiment, fusion proteins were made with falcipain-2, a cysteine protease. Knocking out the falcipain-2 gene causes vacuole swelling resulting from the decreased ability of the organisms to degrade hemoglobin. Fusion of falcipain-2 to the F36V/L106P FKBP mutant produced a conditional falcipain stabilization system.

Peptide text beside a SMILES is read from it. * marks the point of attachment. Cbz = O=C(OCc1ccccc1)* Some results are limits rather than exact numbers.

Sequence of luciferase fused to FKBP-derived stability-affecting protein (F36V/L106P) (P62942 with tags, fused parts or gaps F37V limits assumed): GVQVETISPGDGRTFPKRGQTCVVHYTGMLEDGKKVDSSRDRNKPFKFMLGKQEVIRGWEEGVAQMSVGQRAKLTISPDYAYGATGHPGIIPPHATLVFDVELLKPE
T1 sequence (P62942 with tags, fused parts or gaps F37V): as the sequence (P62942 with tags, fused parts or gaps F37V limits assumed) above
Sequence of falcipain-2 fused to the F36V/L106P FKBP mutant (P62942 with tags, fused parts or gaps F37V limits assumed): as above
T3 sequence (P62942 with tags, fused parts or gaps F37V): as the sequence (P62942 with tags, fused parts or gaps F37V limits assumed) above
Sequence of FKBP F36V variant (P62942 2-108 F37V limits assumed): as the sequence (P62942 with tags, fused parts or gaps F37V limits assumed) above, with P106L counted along it
T2 sequence (P62942 2-108 V25A/F37V): as the sequence (P62942 with tags, fused parts or gaps F37V limits assumed) above, with V24A, P106L counted along it

Consider `CC(=O)N[C@@H](CSC(=O)[C@]1([C@@H](O)C(C)C)NC(=O)[C@H](C)[C@@H]1O)C(=O)O` [lactacystin], for which the “effect on degradation of variant FKBP fusion proteins following withdrawal of Shield1” value in [1] is on record as “inhibited degradation”.
For orientation: EC50 means the concentration at which the effect is half-maximal. Take “1-[2-(3,4,5-trimethoxy-phenyl)-butyryl]-piperazine-2-carboxylic acid 3-(3,4-dimethoxy-phenyl)-1-[3-(2-morpholin-4-yl-ethoxy)-phenyl]-propyl ester [Shield1]”: the “percentage of cells displaying the predicted morphology (penetrance)” value in assay [2] is on record as over 90%. Also, in assay [3], the “levels of YFP fusion protein in the presence of ligand” value is “greatly increased”. Besides, in assay [4] (1 μM Shield1), the “L106P-YFP stabilization upon addition of Shield1” value is reported as “fully stabilized”. In addition, the concentration for a half-maximal effect (EC50) in assay [4] (NIH3T3 cells stably expressing L106P FKBP-YFP) is about 100 nM; in [5] it was about 5 nM. The “time within which YFP expression is observed after Shield1 treatment” value in assay [6] is listed as at most 15 min. In addition, in [7], the “additional time maximum fluorescence is stably maintained without further addition of Shield1” value is at least 48 h. Besides, the “time at which maximum fluorescence is achieved after addition of Shield1” value in assay [7] amounted to 24 h. For the same compound, the “effect of repeated administration of the ligand” value in [8] (10 mg/kg Shield1 every 48 hours) is listed as “continued luciferase stabilization”. In addition, the “time of peak luminescence following a single injection of ligand” value in assay [8] (SCID mice, HCT116 luciferase-FKBP F36V/L106P tumors) is listed as “about 10 hours”. Moreover, the “dependence of luminescence on ligand dose” value in assay [8] (SCID mice, single injection) is recorded as “dependent on ligand dose”. Also, the “levels of YFP on addition / removal of ligand” value in assay [9] is “levels of YFP increase in the presence of ligand and decrease in the absence of ligand”. Further, the “binding to F36V variant compared to wild-type FKBP” value in assay [10] was “about 1,000 fold”. In addition, the “Shield1-dependent stability of fusion proteins” value in assay [11] was “Shield1-dependent stability”. Further, the “organisms with swollen vacuole phenotype, presence of ligand compared to absence” value in assay [12] is listed as “More than 5 times”.
With `CC(C)C[C@@H](C=O)NC(=O)[C@H](CC(C)C)NC(=O)[C@H](CC(C)C)NC(=O)OCc1ccccc1` [MG132] (Cbz-Leu-Leu-Leu-aldehyde), in assay [1], the “effect on degradation of variant FKBP fusion proteins following withdrawal of Shield1” value is given as “inhibited degradation”.
